Experimental data published in PubChem BioAssay AID248 (DTP/NCI, 2004).
Where “and” joins values, the source holds several entries; their conditions need not be identical. Equal entries are not always repeated. Toxic doses and inconclusive results are not listed. No stated cut-off is given here; in the data, active means T/C of 150% or more; inactive means T/C below 125%.

Tested on: L1210 leukemia ip in BDF1 mice, survival T/C
Experiment: NCI In Vivo Anticancer Drug Screen. Data for tumor model L1210 Leukemia (intraperitoneal) in B6D2F1 (BDF1) mice
Conditions: endpoint: mean survival time, higher = longer survival
Summary of the method: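 Tumor cells were implanted, animals were treated, and survival was followed. The result divides the treated measurement by the vehicle-control measurement.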

[1] = dose: 100.0 mg/kg/injection, schedule: Q04DX003 (ip), vehicle: saline with Tween-80
[2] = dose: 200.0 mg/kg/injection, schedule: Q04DX003 (ip), vehicle: saline with Tween-80
[3] = dose: 400.0 mg/kg/injection, schedule: Q04DX003 (ip), vehicle: saline with Tween-80
[4] = dose: 100.0 mg/kg/injection, schedule: Q01DX009 (ip), vehicle: saline with Tween-80
[5] = dose: 100.0 mg/kg/injection, schedule: Q04DX003 (ip), vehicle: Klucel (hydroxypropylcellulose) (HPC)
[6] = dose: 200.0 mg/kg/injection, schedule: Q01DX009 (ip), vehicle: saline with Tween-80
[7] = dose: 200.0 mg/kg/injection, schedule: Q04DX003 (ip), vehicle: Klucel (hydroxypropylcellulose) (HPC)
[8] = dose: 400.0 mg/kg/injection, schedule: Q01DX009 (ip), vehicle: saline with Tween-80
[9] = dose: 400.0 mg/kg/injection, schedule: Q04DX003 (ip), vehicle: Klucel (hydroxypropylcellulose) (HPC)

Measured: T/C

N=C(N)N=Nc1ccc(NN=C(N)N)cc1
inactive: dose: 3.75 mg/kg/injection, schedule: Q01DX Z (ip), vehicle: saline 96 % of control | dose: 7.5 mg/kg/injection, schedule: Q01DX Z (ip), vehicle: saline 103 % of control | dose: 30.0 mg/kg/injection, schedule: Q01DX Z (ip), vehicle: saline 118 % of control | dose: 60.0 mg/kg/injection, schedule: Q01DX Z (ip), vehicle: saline 98 % of control and 87 % of control

Cc1cc(C)c2c(C#N)cn(-c3ccc(Cl)cc3)c2n1
inactive: dose: 100.0 mg/kg/injection, schedule: Q01DX001 (ip), vehicle: saline 87 % of control | dose: 200.0 mg/kg/injection, schedule: Q01DX001 (ip), vehicle: saline 97 % of control | dose: 400.0 mg/kg/injection, schedule: Q01DX001 (ip), vehicle: saline 91 % of control

O=C1N(O)C23CCCC(Br)C2ON=C3C12CCCCC2 (stereo unspecified)
inactive: dose: 100.0 mg/kg/injection, schedule: Q01DX001 (ip), vehicle: saline with Tween-80 112 % of control | [1] 106 % of control | dose: 200.0 mg/kg/injection, schedule: Q01DX001 (ip), vehicle: saline with Tween-80 112 % of control | [2] 98 % of control | dose: 400.0 mg/kg/injection, schedule: Q01DX001 (ip), vehicle: saline with Tween-80 104 % of control | [3] 95 % of control

CCNC(C)(C)C(SSSC(c1cccs1)C(C)(C)NCC)c1cccs1 (stereo unspecified)
inactive: dose: 25.0 mg/kg/injection, schedule: Q01DX009 (ip), vehicle: other 108 % of control | dose: 50.0 mg/kg/injection, schedule: Q01DX009 (ip), vehicle: other 103 % of control | dose: 100.0 mg/kg/injection, schedule: Q01DX009 (ip), vehicle: other 97 % of control | dose: 100.0 mg/kg/injection, schedule: Q04DX003 (ip), vehicle: saline 98 % of control

c1ccc2c(c1)nc1n2CCC1
inactive: dose: 100.0 mg/kg/injection, schedule: Q01DX001 (ip), vehicle: carboxymethylcellulose (CMC) 96 % of control | dose: 200.0 mg/kg/injection, schedule: Q01DX001 (ip), vehicle: carboxymethylcellulose (CMC) 98 % of control | dose: 400.0 mg/kg/injection, schedule: Q01DX001 (ip), vehicle: carboxymethylcellulose (CMC) 102 % of control

O=[N+]([O-])c1ccc2c(c1)/C(=N/O)CCC2
inactive: [4] 110 % of control | [5] 96 % of control | [6] 92 % of control | [7] 91 % of control | [8] 90 % of control | [9] 104 % of control

O=C(Nc1cc([N+](=O)[O-])ccc1F)N(C1CCCCC1)C1CCCCC1
inactive: [5] 87 % of control | [7] 96 % of control | [9] 104 % of control

CCSc1nc(C=O)c(Cc2ccc(Br)cc2)c(=O)[nH]1
inactive: [1] 106 % of control | [2] 103 % of control | [3] 106 % of control

O=C(CCl)NCc1ccc(Cl)cc1
inactive: dose: 50.0 mg/kg/injection, schedule: Q01DX001 (ip), vehicle: other 102 % of control | dose: 100.0 mg/kg/injection, schedule: Q01DX001 (ip), vehicle: other 93 % of control | dose: 200.0 mg/kg/injection, schedule: Q01DX001 (ip), vehicle: other 102 % of control

Oc1ccc(-c2cc3c(O)ccc(O)c3[nH]2)cc1
inactive: dose: 50.0 mg/kg/injection, schedule: Q04DX002 (ip), vehicle: Klucel (hydroxypropylcellulose) (HPC) 96 % of control | dose: 100.0 mg/kg/injection, schedule: Q04DX002 (ip), vehicle: Klucel (hydroxypropylcellulose) (HPC) 105 % of control | dose: 200.0 mg/kg/injection, schedule: Q04DX002 (ip), vehicle: Klucel (hydroxypropylcellulose) (HPC) 102 % of control

CC(=O)N(C)c1ccc(NC(=O)Cc2ccccc2)cc1
inactive: [4] 96 % of control | [6] 102 % of control | [8] 95 % of control
